According to US7501410B2, “Methods of inhibiting BTK and SYK protein kinases” (Roche Palo Alto LLC, priority 2006, dated 2009):

Assays:
[1] = biological target: T1, Bruton's Tyrosine Kinase (Btk) (Homo sapiens, UniProt Q06187); assay: Determination of IC50 of Bruton's Tyrosine Kinase (Btk) inhibition, 33P filtration assay; type: biochemical; settings: His-tagged full-length Btk, 100 μM ATP
T1 construct: 5-10 nM Btk enzyme (His-tagged, full-length); His tag
Source text: Determination of IC50 of Bruton's Tyrosine Kinase (Btk) Inhibition
The assay is a capture of radioactive ^33P phosphorylated product through filtration. The interactions of Btk, biotinylated SH2 peptide substrate (Src homology), and ATP lead to phosphorylation of the peptide substrate. Biotinylated product is bound streptavidin sepharose beads. All bound, radiolabeled products are detected by scintillation counter.
Plates assayed are 96-well polypropylene (Greiner) and 96-well 1.2 μm hydrophilic PVDF filter plates (Millipore). Concentrations reported here are final assay concentrations: 10-100 μM compounds in DMSO (Burdick and Jackson), 5-10 nM Btk enzyme (His-tagged, full-length), 30 μM peptide substrate (Biotin-Aca-[…]-NH2), 100 μM ATP (Sigma), 8 mM imidazole (Sigma, pH 7.2), 8 mM glycerol-2-phosphate (Sigma), 200 μM EGTA (Roche Diagnostics), 1 mM MnCl2 (Sigma), 20 mM MgCl2 (Sigma), 0.1 mg/ml BSA (Sigma), 2 mM DTT (Sigma), 1 μCi ^33P ATP (Amersham), 20% streptavidin sepharose beads (Amersham), 50 mM EDTA (Gibco), 2 M NaCl (Gibco), 2 M NaCl w/1% phosphoric acid (Gibco), microscint-20 (Perkin Elmer).
IC50 determinations are calculated from 10 data points per compound utilizing data produced from a standard 96-well plate assay template. One control compound and seven unknown inhibitors were tested on each plate and each plate was run twice. Typically, compounds were diluted in half-log starting at 100 μM and ending at 3 nM. The control compound was staurosporine. Background was counted in the absence of peptide substrate. Total activity was determined in the presence of peptide substrate. The following protocol was used to determine BTK inhibition.
1) Sample preparation: The test compounds were diluted at half-log increments in assay buffer (imidazole, glycerol-2-phosphate, EGTA, MnCl2, MgCl2, BSA).
2) Bead preparation • a.) rinse beads by centrifuging at 500 g • b.) reconstitute the beads with PBS and EDTA to produce a 20% bead slurry
3) Pre-incubate reaction mix without substrate (assay buffer, DTT, ATP, ^33P ATP) and mix with substrate (assay buffer, DTT, ATP, ^33P ATP, peptide substrate) 30° C. for 15 min.
4) To start assay, pre-incubate 10 μL BTK in enzyme buffer (imidazole, glycerol-2-phosphate, BSA) and 10 μL of test compounds for 10 min at RT.
5) Add 30 μL reaction mixture without or with substrate to BTK and compounds.
6) Incubate 50 μL total assay mix for 30 min at 30° C.
7) Transfer 40 μL of assay to 150 μL bead slurry in filter plate to stop reaction.
8) Wash filter plate after 30 min, with following steps • a. 3 ×250 μL NaCl • b. 3×250 μL NaCl containing 1% phosphoric acid • c. 1×250 μL H2O
9) Dry plate for 1 h at 65° C. or overnight at RT
10) Add 50 μL microscint-20 and count ^33P cpm on scintillation counter.
Calculate percent activity from raw data in cpm percent activity=(sample−bkg)/(total activity−bkg)×100

[2] = biological target: T2, Spleen Tyrosine Kinase (SYK) aa 360-635 (Homo sapiens, UniProt P43405); assay: Determination of IC50 of Spleen Tyrosine Kinase (SYK) inhibition, 33P kinase assay; type: biochemical; settings: recombinant human SYK360-635, 20 μM ATP; read-out: IC50 (μM) SYK Assay
T2 construct: truncated construct of Spleen Tyrosine Kinase aa 360-635; made in house
Experimental: Determination of IC50 of Spleen Tyrosine Kinase (SYK) Inhibition
The SYK kinase assay is a standard kinase assay adapted to a 96 well plate format. This assay is performed in 96-well format for IC50 determination with 8 samples which represented 10 half log dilutions and a 40 μL reaction volume. The assay measures the incorporation of radiolabeled ^33P γATP into an N-terminally biotinylated peptide substrate, derived from naturally occurring phosphoacceptor consensus sequence (Biotin-11aa DY*E). Phosphorylated products were detected upon termination of reactions with EDTA and the addition of Streptavidin coated beads. • Assay plates: 96-well MultiScreen 0.65 um filter plates (Millipore Cat. No.: MADVNOB10) • Streptavidin coated beads: Streptavidin Sepharose TM, suspension 5.0 mL, in 50 mM EDTA/PBS diluted (1:100), (Amersham, Cat. No.: 17-5113-01) • Compounds: 10 mM in 100% dimethylsulfoxide (DMSO), final conc.: compound 0.003-100 uM in 10% DMSO • Enzyme: SYK RPA purified, truncated construct of Spleen Tyrosine Kinase aa 360-635, stock solution 1 mg/mL, MW: 31.2 KDa, final conc.:0.0005 μM. • Peptide 1: biotinylated peptide is derived from a naturally occurring phosphor-acceptor consensus sequence (Biotin-[…]), special order from QCB, stock solution 20 mM, final conc.: 5.0 μM. • ATP: Adenosine-5′-triphosphate 20 mM, (ROCHE Cat. No.:93202720), final concentration: 20 μM • Buffer: HEPES: 2-Hydroxyethyl piperazine-2-ethanesulfonic acid (Sigma, Cat. No.: H-3375) final concentration: 50 mM HEPES pH7.5 • BSA: Bovine Serum Albumin Fraction V, fatty acid free (Roche Diagnostics GmbH, Cat. No. 9100221) diluted to a final concentration of 0.1% • EDTA: EDTA stock solution 500 mM, (GIBCO, Cat. No.: 15575-038) final concentration: 0.1 mM • DTT: 1,4-Dithiothreitol (Roche Diagnostics GmbH, Cat. No.: 197777), final conc.: 1 mM • MgCl2×6H2O: MERCK, Cat. No.: 105833.1000, final concentration: 10 mM • Assay Dilution Buffer (ADB): 50 mM HEPES, 0.1 mM EGTA, 0.1 mM Na Vanadate, 0.1 mM β-glycerophosphate, 10 mM MgCl2, 1 mM DTT, 0,1% BSA, pH 7.5 • Bead wash buffer: 10 g/L PBS (Phosphate buffered saline) with 2M NaCl+1% phosphoric acid Experimental Method:
In 40 μL volume, 26 μL of ADB diluted, purified recombinant human SYK360-635 [0.5 nM] was mixed with 4 μL of 10× concentrations of the test compounds, [usually 100 μM-0.003 μM] in [10%] DMSO and the mixture was incubated for 10 min at RT.
The kinase reaction was initiated by the addition of 10 μL 4× substrate cocktail containing the DYE peptide substrate [0 or 5 μM], ATP [20 μM] and […] [2 μCi/rxn]. After incubation at 30° C. for 15 min, the reaction was terminated by the transfer of 25 μL of the reaction sample to a 96 well 0.65 um Millipore MADVNOB membrane/plate containing 200 μL 5 mM EDTA and 20% Streptavidine coated beads in PBS.
The unbound radionucleotides were washed under vacuum with 3×250 μL 2M NaCl; 2×250 μL 2M NaCl+1% phosphoric acid; 1×250 μL H2O. After the last wash membrane/plates were transferred to an adaptor plate, heat dried for 15 min at 60° C., and 50 μL scintillation cocktail was added to each well and 4 h later the amount of radioactivity was counted in a top counter.
The IC50 was calculated using a non-linear curve fit with XLfit software (ID Business Solution Ltd., Guilford, Surrey, UK). […] Representative results are in Table 1.

T1 sequence (Q06187 whole entry): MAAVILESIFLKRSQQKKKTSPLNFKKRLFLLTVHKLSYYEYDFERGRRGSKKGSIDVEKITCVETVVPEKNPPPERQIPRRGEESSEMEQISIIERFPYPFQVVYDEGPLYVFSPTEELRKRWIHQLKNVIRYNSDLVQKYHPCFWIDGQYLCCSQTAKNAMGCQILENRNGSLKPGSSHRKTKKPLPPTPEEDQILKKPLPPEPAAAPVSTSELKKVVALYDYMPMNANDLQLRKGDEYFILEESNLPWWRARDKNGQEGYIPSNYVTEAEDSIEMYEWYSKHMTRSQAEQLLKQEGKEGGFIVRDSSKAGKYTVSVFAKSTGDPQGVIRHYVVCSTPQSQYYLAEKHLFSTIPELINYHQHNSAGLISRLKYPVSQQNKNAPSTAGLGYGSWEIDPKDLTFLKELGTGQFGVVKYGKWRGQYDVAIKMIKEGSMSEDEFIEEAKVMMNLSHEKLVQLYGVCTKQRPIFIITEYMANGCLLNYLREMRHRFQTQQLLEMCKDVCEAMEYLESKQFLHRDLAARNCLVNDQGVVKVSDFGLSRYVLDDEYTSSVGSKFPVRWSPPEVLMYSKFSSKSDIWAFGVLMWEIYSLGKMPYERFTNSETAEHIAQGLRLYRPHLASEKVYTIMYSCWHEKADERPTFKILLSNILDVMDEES

SMILES	IC50 [1] [µM]	IC50 [2] [µM]
Cc1cc(Nc2nn(Cc3csc(C)n3)c(=O)c3ccccc23)n[nH]1 [Example A-16, 4-(5-methyl-1H-pyrazol-3-ylamino)-2-(2-methyl-thiazol-4-ylmethyl)-2H-phthalazin-1-one]	25.2	87.9
COc1ccc(Cn2nc(Nc3cc(C)[nH]n3)c3ccccc3c2=O)cc1 [Example A-11, 2-(4-methoxy-benzyl)-4-(5-methyl-1H-pyrazol-3-ylamino)-2H-phthalazin-1-one]	9.79	49.2
Cc1cc(Nc2nn(Cc3cc(F)cc(F)c3)c(=O)c3ccccc23)n[nH]1 [Example A-21, 2-(3,5-difluoro-benzyl)-4-(5-methyl-1H-pyrazol-3-yl-amino)-2H-phthalazin-1-one]	14.6	> 10
Cc1cc(Nc2nn(C(C)C)c(=O)c3cc(C(=O)OCC4CC4)ccc23)n[nH]1 [Example M-6, 3-Isopropyl-1-(5-methyl-1H-pyrazol-3-ylamino)-4-oxo-3,4-dihydro-phthalazine-6-carboxylic acid cyclopropylmethyl ester]	67.7	9.99
Cc1cc(Nc2nn(-c3ccc(C(C)(C)C)cc3)c(=O)c3ccccc23)n[nH]1 [Example A-8, 2-(4-tert-butyl-phenyl)-4-(5-methyl-1H-pyrazol-3-ylamino)-2H-phthalazin-1-one]	30	0.552
Cc1cc(Nc2nn(C(C)C)c(=O)c3cc(O)ccc23)n[nH]1 [Example G-6, 7-Hydroxy-2-isopropyl-4-(5-methyl-1H-pyrazol-3-yl-amino)-2H-phthalazin-1-one]	1.28	2.52
Cc1cc(Nc2nn(C(C)C)c(=O)c3cc(C(=O)NC(C)C)ccc23)n[nH]1 [Example M-5, 3-Isopropyl-1-(5-methyl-1H-pyrazol-3-ylamino)-4-oxo-3,4-dihydro-phthalazine-6-carboxylic acid isopropylamide]	0.769	2.16
CC(=O)Nc1ccc2c(Nc3cc(C)[nH]n3)nn(C(C)C)c(=O)c2c1 [Example I-8, N-[3-Isopropyl-1-(5-methyl-1H-pyrazol-3-ylamino)-4-oxo-3,4-dihydro-phthalazin-6-yl]-acetamide]	2.23	5.62
Cc1cc(Nc2nn(C(C)C)c(=O)c3cc(F)ccc23)n[nH]1 [Example E-2, 7-Fluoro-2-isopropyl-4-(5-methyl-1H-pyrazol-3-ylamino)-2H-phthalazin-1-one]	9.53	7.61
CSc1ccc2c(Nc3cc(C)[nH]n3)nn(C(C)C)c(=O)c2c1 [Example H-1, 2-Isopropyl-4-(5-methyl-1H-pyrazol-3-ylamino)-7-methylsulfanyl-2H-phthalazin-1-one]	4.32	1.57
Cc1cc(Nc2nn(C(C)C)c(=O)c3cc(OCCCS(=O)(=O)N(C)C)ccc23)n[nH]1 [Example ZD-3, 3-[3-Isopropyl-1-(5-methyl-1H-pyrazol-3-ylamino)-4-oxo-3,4-dihydro-phthalazin-6-yloxy]-propane-1-sulfonic acid dimethylamide]	0.86	3.02
Cc1cc(Nc2nn(-c3ccc(Cl)cc3)c(=O)c3ccccc23)n[nH]1 [Example B-1, 2-(4-Chloro-phenyl)-4-(5-methyl-1H-pyrazol-3-ylamino)-2H-phthalazin-1-one]	5.03	1.19
COc1ccc2c(Nc3cc(C)[nH]n3)nn(C(C)C)c(=O)c2c1 [Example G-1, 2-Isopropyl-4-(5-methyl-1H-pyrazol-3-ylamino)-7-methoxy-2H-phthalazin-1-one]	0.724	0.793
Cc1cc(Nc2nn(C(C)C)c(=O)c3cc(CS(C)(=O)=O)ccc23)n[nH]1 [Example ZI-2, 2-Isopropyl-7-methanesulfonylmethyl-4-(5-methyl-1H-pyrazol-3-yl-amino)-2H-phthalazin-1-one]	0.44	0.894
Cc1cc(Nc2nn(C(C)C)c(=O)c3ccc(N(C)C)cc23)n[nH]1 [Example F-7, 2-Isopropyl-4-(5-methyl-1H-pyrazol-3-ylamino)-6-dimethylamino-2H-phthalazin-1-one]	14.6	37.4
Cc1cc(Nc2nn(Cc3cc(F)ccc3F)c(=O)c3ccccc23)n[nH]1 [Example A-13, 2-(2,5-difluoro-benzyl)-4-(5-methyl-1H-pyrazol-3-yl-amino)-2H-phthalazin-1-one]	38.6	22.9
Cc1cc(Nc2nn(Cc3cccc(C(=O)O)c3)c(=O)c3ccccc23)n[nH]1 [Example A-24, 3-[4-(5-methyl-1H-pyrazol-3-ylamino)-1-oxo-1H-phthalazin-2-ylmethyl]-benzoic acid]	1.75	24.9
